Reference: the NIST ThermoML archive (doi:10.1016/j.jct.2015.06.009)
Numbers after ± are expanded uncertainties.

Legend:
[1] = 101 kPa, Liquid; for speed of sound: Frequency=3 MHz, Sing-around technique in a fixed-path interferometer; for mass density: Vibrating tube method
[2] = refractive index (Na D-line) (dimensionless); conditions: 298.15 K; 101.33 kPa; Liquid; Standard Abbe refractometry
[3] = xn = mol fraction of the nth substance listed; conditions: 101 kPa, Liquid; for speed of sound: Frequency=3 MHz, Sing-around technique in a fixed-path interferometer; for mass density: Vibrating tube method

COC(C)(C)C [2-methoxy-2-methylpropane]
[1]
Conditions	mass density [kg/m3]	speed of sound [m/s]
298.15 K	735.21 ± 0.16	1036.3 ± 1.1
308.15 K	724.64 ± 0.16	990.46 ± 1.1
318.15 K	714 ± 0.17	944.87 ± 1.1
328.15 K	703.29 ± 0.17	–

Conditions	refractive index
[2]	1.36648 ± 0.00031

CCCCO [butan-1-ol]
[1]
Conditions	mass density [kg/m3]	speed of sound [m/s]
298.15 K	805.73 ± 0.14	1240 ± 1.2
308.15 K	798.07 ± 0.15	1206.6 ± 1.2
318.15 K	790.37 ± 0.15	1173.4 ± 1.2
328.15 K	782.58 ± 0.15	1140.4 ± 1.2

Conditions	refractive index
[2]	1.39733 ± 0.00031

CCCCO [butan-1-ol] + COC(C)(C)C
[3], x2 = 0
Conditions	mass density [kg/m3]	speed of sound [m/s]
298.15 K	805.73 ± 0.14	1240 ± 1.2
308.15 K	798.07 ± 0.15	1206.6 ± 1.2
318.15 K	790.37 ± 0.15	1173.4 ± 1.2
328.15 K	782.58 ± 0.15	1140.4 ± 1.2

CCCCO [butan-1-ol] + Cc1ccccc1
[3]
Conditions	mass density, 298.15 K [kg/m3]	mass density, 308.15 K [kg/m3]	mass density, 318.15 K [kg/m3]	mass density, 328.15 K [kg/m3]	speed of sound, 298.15 K [m/s]	speed of sound, 308.15 K [m/s]	speed of sound, 318.15 K [m/s]	speed of sound, 328.15 K [m/s]
x2 = 0.2008	818.72 ± 0.14	810.48 ± 0.14	802.18 ± 0.14	793.77 ± 0.15	1248 ± 1.2	1212.2 ± 1.2	1176.5 ± 1.2	1141.2 ± 1.2
x2 = 0.4064	830.53 ± 0.14	821.82 ± 0.14	813.05 ± 0.14	804.18 ± 0.14	1255.5 ± 1.2	1217.6 ± 1.2	1180.1 ± 1.2	1143 ± 1.1
x2 = 0.5993	840.92 ± 0.13	831.87 ± 0.14	822.79 ± 0.14	813.62 ± 0.14	1263.8 ± 1.2	1224.6 ± 1.2	1185.7 ± 1.1	1147.5 ± 1.1
x2 = 0.7995	851.36 ± 0.13	842.08 ± 0.13	832.78 ± 0.14	823.42 ± 0.14	1277.3 ± 1.2	1237.1 ± 1.2	1197.3 ± 1.1	1158.2 ± 1.1

Cc1ccccc1 [toluene]
[1]
Conditions	mass density [kg/m3]	speed of sound [m/s]
298.15 K	862.18 ± 0.13	1305.3 ± 1.2
308.15 K	852.87 ± 0.13	1262.5 ± 1.2
318.15 K	843.58 ± 0.13	1220.2 ± 1.2
328.15 K	834.29 ± 0.13	1178.5 ± 1.1

Conditions	refractive index
[2]	1.49393 ± 0.00031
